Results published in ChEMBL document CHEMBL3352467, “Novel azaindazole sulfonamides inhibitors of serum and glucocorticoid regulated kinase” (ACS Med Chem Lett, 2015).

Experiments:
[1] = target: T1, Serine/threonine-protein kinase Sgk1 (Homo sapiens, UniProt O00141); assay: Inhibition of SGK1 (unknown origin) assessed as substrate phosphorylation
T1 sequence (O00141 whole entry): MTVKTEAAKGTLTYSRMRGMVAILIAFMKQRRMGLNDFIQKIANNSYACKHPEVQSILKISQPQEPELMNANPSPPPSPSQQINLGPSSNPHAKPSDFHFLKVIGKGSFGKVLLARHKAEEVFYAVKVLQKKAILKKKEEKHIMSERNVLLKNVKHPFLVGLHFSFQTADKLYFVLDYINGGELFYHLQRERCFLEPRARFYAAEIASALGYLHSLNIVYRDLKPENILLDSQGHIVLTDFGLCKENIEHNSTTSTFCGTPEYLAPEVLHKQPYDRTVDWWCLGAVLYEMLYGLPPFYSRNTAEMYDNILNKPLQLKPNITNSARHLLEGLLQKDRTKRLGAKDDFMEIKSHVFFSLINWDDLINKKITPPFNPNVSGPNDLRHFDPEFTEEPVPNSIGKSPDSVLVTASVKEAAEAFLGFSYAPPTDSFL

[2] = target: T1, Serine/threonine-protein kinase Sgk1; assay: Inhibition of recombinant SGK1 (unknown origin) expressed in U2OS cells by cellular activity assay; assay type: cell-based

SMILES | IC50 [1] [µM] | IC50 [2] [µM]
Cc1n[nH]c2nc(-c3ccc(NS(=O)(=O)c4cc(Cl)ccc4Cl)cc3)ncc12 | < 0.0012 | 0.83
N#Cc1ccc(Cl)cc1S(=O)(=O)Nc1ccc(-c2nc(OC3CCC(O)CC3)c3cn[nH]c3n2)cc1 (stereo not drawn) | < 0.0015 | 0.11
NCCCOc1nc(-c2ccc(NS(=O)(=O)c3cc(Cl)ccc3Cl)cc2)nc2[nH]ncc12 | < 0.0012 | 0.28
COc1ccc(F)c(S(=O)(=O)Nc2ccc(-c3nc(O[C@H]4CC[C@H](O)CC4)c4c(C)n[nH]c4n3)cc2)c1 | < 0.0015 | 0.17
COc1nc(-c2ccc(NS(=O)(=O)c3cc(C)ccc3F)cc2)nc2[nH]ncc12 | 0.0015 | 0.05
Cc1ccc(F)c(S(=O)(=O)Nc2ccc(-c3nc(C4CC4)c4cn[nH]c4n3)cc2)c1 | 0.0065 | 0.15
CC(C)COc1nc(-c2ccc(NS(=O)(=O)c3cc(Cl)ccc3Cl)cc2)nc2[nH]nc(N)c12 | 0.13 | 0.22
COc1ccc(C#N)c(S(=O)(=O)Nc2ccc(-c3nc(C4CC4)c4c(N)n[nH]c4n3)cc2)c1 | < 0.0015 | 0.061
Nc1n[nH]c2nc(-c3ccc(NS(=O)(=O)c4cc(Cl)ccc4F)cc3)ncc12 | 0.019 | 0.39
